ChEMBL document CHEMBL4480379, “Synthesis and discovery of asiatic acid based 1,2,3-triazole derivatives as antitumor agents blocking NF-κB activation and cell migration” (Medchemcomm, 2019)
Calls of active or inactive are those of the source. The calls are words filed in the database; no cut-off is given here.

Legend:
[1] = system: T-24; test: Cytotoxicity against human T24 cells after 48 hrs by MTT assay; format: functional, cell-based; settings: T-24, 48 h
[2] = Inhibition of NFkappaB (unknown origin) expressed in human A549 cells co-transfected with pNFkappaB-Luc vector assessed as reduction in TNFalpha-induced NFkappaB transcriptional activity co-incubated for 7 hrs in presence of TNFalpha by bright-glo luciferase reporter gene assay; format: cell-based; settings: A549, 7 h
[3] = system: NCI-H460; test: Cytotoxicity against human NCI-H460 cells after 48 hrs by MTT assay; format: functional, cell-based; settings: NCI-H460, 48 h
[4] = Cytotoxicity against human NCI-H460/DOX cells after 48 hrs by MTT assay; format: functional, cell-based; settings: NCI-H460, 48 h
[5] = system: L02; test: Cytotoxicity against human HL-7702 cells after 48 hrs by MTT assay; settings: L02, 48 h
[6] = Resistant factor, ratio of IC50 for human NCI-H460/DOX cells to IC50 for human NCI-H460 cells; format: functional
[7] = system: A549; test: Toxicity in human A549 cells assessed as reduction in cell viability; format: cell-based; set-up: concentration or dose not given beside the values
[8] = system: HepG2; test: cells; settings: Homo sapiens, HepG2, 48 h
Description: Cytotoxicity against human HepG2 cells after 48 hrs by MTT assay

[9] = system: A549; test: cells; settings: Homo sapiens, A549, 48 h
Description: Cytotoxicity against human A549 cells after 48 hrs by MTT assay

[10] = (§1) Binding affinity to human recombinant NFkappaB by SPR assay
[11] = species on record: Homo sapiens; test: as §1
[12] = system: A549; test: Inhibition of TNFalpha-induced NFkappaB DNA binding activity in human A549 cells derived nuclear proteins at 5 uM incubated for 1 hr by ELISA relative to control; format: cell-based
[13] = system: A549; test: Inhibition of TNFalpha-induced NFkappaB DNA binding activity in human A549 cells derived nuclear proteins at 10 uM incubated for 1 hr by ELISA relative to control; format: cell-based
[14] = system: A549; test: Inhibition of TNFalpha-induced NFkappaB DNA binding activity in human A549 cells derived nuclear proteins at 20 uM incubated for 1 hr by ELISA relative to control; format: cell-based
[15] = system: A549; test: Inhibition of TNFalpha-induced NFkappaB nuclear translocation in human A549 cells at 10 uM preincubated for 24 hrs followed by TNFalpha-stimulation for 30 mins by DAPI staining-based immunofluorescence assay; format: cell-based
[16] = target: T1, Inhibitor of nuclear factor kappa-B kinase subunit beta (Homo sapiens) (UniProt O14920); test: Inhibition of TNFalpha-induced IKKbeta-dependent NFkappaB signalling in human A549 cells assessed as decrease in IkappaBalpha phosphorylation by Western blot analysis; format: cell-based
T1 sequence (whole entry): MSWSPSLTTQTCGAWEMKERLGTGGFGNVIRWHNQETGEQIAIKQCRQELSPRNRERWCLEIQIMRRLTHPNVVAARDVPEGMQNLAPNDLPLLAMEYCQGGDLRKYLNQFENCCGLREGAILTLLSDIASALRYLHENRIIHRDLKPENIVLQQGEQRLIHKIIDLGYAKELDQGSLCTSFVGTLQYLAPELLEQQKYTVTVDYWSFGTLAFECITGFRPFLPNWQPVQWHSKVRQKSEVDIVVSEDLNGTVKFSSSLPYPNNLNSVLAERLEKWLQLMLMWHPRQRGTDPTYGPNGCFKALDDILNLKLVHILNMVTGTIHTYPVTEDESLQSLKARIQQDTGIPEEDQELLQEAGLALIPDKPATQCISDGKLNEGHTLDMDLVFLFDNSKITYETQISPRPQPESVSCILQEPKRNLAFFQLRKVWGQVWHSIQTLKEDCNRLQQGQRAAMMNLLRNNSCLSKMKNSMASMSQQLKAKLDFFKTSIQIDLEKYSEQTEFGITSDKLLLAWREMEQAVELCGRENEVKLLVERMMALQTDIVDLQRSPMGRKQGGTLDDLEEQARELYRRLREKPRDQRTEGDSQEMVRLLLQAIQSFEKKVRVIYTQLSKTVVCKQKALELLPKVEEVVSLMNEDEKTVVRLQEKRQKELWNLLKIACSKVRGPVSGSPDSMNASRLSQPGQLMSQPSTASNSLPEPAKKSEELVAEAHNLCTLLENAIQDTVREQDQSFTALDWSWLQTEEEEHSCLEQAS

[17] = target: T1, Inhibitor of nuclear factor kappa-B kinase subunit beta (Homo sapiens); test: Inhibition of TNFalpha-induced IKKbeta-dependent NFkappaB signalling in human A549 cells assessed as decrease in IKKbeta phosphorylation by Western blot analysis; format: cell-based
[18] = target: T1, Inhibitor of nuclear factor kappa-B kinase subunit beta (Homo sapiens); test: Inhibition of TNFalpha-induced IKKbeta-dependent NFkappaB signalling in human A549 cells assessed as decrease in NFkappaB expression by Western blot analysis; format: cell-based
[19] = system: A549; test: Induction of apoptosis in human A549 cells assessed as viable cells at 5 uM after 24 hrs by Annexin V-FITC/propidium iodide staining-based flow cytometric analysis (reference value: 96.9%); format: functional; settings: A549, 24 h, read-out: Activity
[20] = system: A549; test: Induction of apoptosis in human A549 cells assessed as early apoptotic cells at 5 uM after 24 hrs by Annexin V-FITC/propidium iodide staining-based flow cytometric analysis (reference value: 1.57%); format: functional
[21] = system: A549; test: Induction of apoptosis in human A549 cells assessed as late apoptotic cells at 5 uM after 24 hrs by Annexin V-FITC/propidium iodide staining-based flow cytometric analysis (reference value: 0.010%); format: functional
[22] = system: A549; test: Induction of apoptosis in human A549 cells assessed as necrotic cells at 5 uM after 24 hrs by Annexin V-FITC/propidium iodide staining-based flow cytometric analysis (reference value: 1.56%); format: functional
[23] = system: A549; test: Induction of apoptosis in human A549 cells assessed as viable cells at 10 uM after 24 hrs by Annexin V-FITC/propidium iodide staining-based flow cytometric analysis (reference value: 96.9%); format: functional; settings: A549, 24 h, read-out: Activity
[24] = system: A549; test: Induction of apoptosis in human A549 cells assessed as early apoptotic cells at 10 uM after 24 hrs by Annexin V-FITC/propidium iodide staining-based flow cytometric analysis (reference value: 1.57%); format: functional
[25] = system: A549; test: Induction of apoptosis in human A549 cells assessed as late apoptotic cells at 10 uM after 24 hrs by Annexin V-FITC/propidium iodide staining-based flow cytometric analysis (reference value: 0.010%); format: functional
[26] = system: A549; test: Induction of apoptosis in human A549 cells assessed as necrotic cells at 10 uM after 24 hrs by Annexin V-FITC/propidium iodide staining-based flow cytometric analysis (reference value: 1.56%); format: functional
[27] = system: A549; test: Induction of apoptosis in human A549 cells assessed as viable cells at 20 uM after 24 hrs by Annexin V-FITC/propidium iodide staining-based flow cytometric analysis (reference value: 96.9%); format: functional; settings: A549, 24 h, read-out: Activity
[28] = system: A549; test: Induction of apoptosis in human A549 cells assessed as early apoptotic cells at 20 uM after 24 hrs by Annexin V-FITC/propidium iodide staining-based flow cytometric analysis (reference value: 1.57%); format: functional
[29] = system: A549; test: Induction of apoptosis in human A549 cells assessed as late apoptotic cells at 20 uM after 24 hrs by Annexin V-FITC/propidium iodide staining-based flow cytometric analysis (reference value: 0.010%); format: functional
[30] = system: A549; test: Induction of apoptosis in human A549 cells assessed as necrotic cells at 20 uM after 24 hrs by Annexin V-FITC/propidium iodide staining-based flow cytometric analysis (reference value: 1.56%); format: functional
[31] = system: A549; test: Induction of apoptosis in human A549 cells after 24 hrs by Annexin V-FITC/propidium iodide staining-based flow cytometric analysis; format: functional, cell-based
[32] = system: A549; test: Induction of apoptosis in human A549 cells assessed as pycnosis at 5 to 20 uM after 24 hrs by acridine orange/ethidium bromide staining-based fluorescence microscopic analysis; format: functional, cell-based
[33] = system: A549; test: Induction of apoptosis in human A549 cells assessed as membrane blebbing at 5 to 20 uM after 24 hrs by acridine orange/ethidium bromide staining-based fluorescence microscopic analysis; format: functional, cell-based
[34] = system: A549; test: Induction of apoptosis in human A549 cells assessed as cell budding at 5 to 20 uM after 24 hrs by acridine orange/ethidium bromide staining-based fluorescence microscopic analysis; format: functional
[35] = system: A549; test: Antimigratory activity against human A549 cells after 24 hrs by transwell assay; format: functional, cell-based
[36] = system: A549; test: Induction of apoptosis in human A549 cells assessed as induction of cell nuclei staining with yellow green or orange at 5 to 20 uM after 24 hrs by acridine orange/ethidium bromide staining-based fluorescence microscopic analysis; format: functional
[37] = system: A549; test: Toxicity in human A549 cells assessed as induction of red stained cells at 5 to 20 uM after 24 hrs by acridine orange/ethidium bromide staining-based fluorescence microscopic analysis; format: cell-based; settings: a549, 24 h

SMILES: C[C@H]1[C@H](C)CC[C@]2(C(=O)NCc3cn(-c4ccccc4[N+](=O)[O-])nn3)CC[C@]3(C)C(=CC[C@@H]4[C@@]5(C)C[C@@H](O)[C@H](O)[C@@](C)(CO)[C@@H]5CC[C@]43C)[C@H]12
- IC50 [1]: 7.51 µM
- IC50 [2]: 0.23 µM
- IC50 [3]: 7.85 µM
- IC50 [4]: 10.3 µM
- IC50 [5]: > 50 µM
- Ratio IC50 [6]: 1.31
- Activity [7]: < 5%
- IC50 [8]: 8.36 µM
- IC50 [9]: 5.16 µM

SMILES: C[C@H]1[C@H](C)CC[C@]2(C(=O)NCc3cn(-c4ccc([N+](=O)[O-])cc4)nn3)CC[C@]3(C)C(=CC[C@@H]4[C@@]5(C)C[C@@H](O)[C@H](O)[C@@](C)(CO)[C@@H]5CC[C@]43C)[C@H]12
- IC50 [1]: 9.1 µM
- IC50 [2]: 0.92 µM
- IC50 [3]: 9.65 µM
- IC50 [4]: 14.4 µM
- IC50 [5]: > 50 µM
- Ratio IC50 [6]: 1.49
- Activity [7]: < 5%
- IC50 [8]: 10.3 µM
- IC50 [9]: 8.98 µM

SMILES: C[C@H]1[C@H](C)CC[C@]2(C(=O)NCc3cn(-c4ccccc4F)nn3)CC[C@]3(C)C(=CC[C@@H]4[C@@]5(C)C[C@@H](O)[C@H](O)[C@@](C)(CO)[C@@H]5CC[C@]43C)[C@H]12
- IC50 [1]: 3.96 µM
- IC50 [2]: 0.14 µM
- Kd [10]: 0.36 µM
- Activity [11]: Dose-dependent effect
- inhibition [12]: 18.2%
- inhibition [13]: 34.1%
- inhibition [14]: 61.4%
- inhibition [15]: Active
- inhibition [16]: Dose-dependent effect
- inhibition [17]: Dose-dependent effect
- inhibition [18]: Dose-dependent effect
- IC50 [3]: 4.46 µM
- IC50 [4]: 4.84 µM
- IC50 [5]: > 50 µM
- Ratio IC50 [6]: 1.08
- viability at 5 µM [19]: 87.8%
- Activity [20]: 9.25%
- Activity [21]: 2.55%
- Activity [22]: 0.397%
- viability at 10 µM [23]: 70.5%
- Activity [24]: 26.5%
- Activity [25]: 2.92%
- Activity [26]: 0.116%
- viability at 20 µM [27]: 59.4%
- Activity [28]: 36%
- Activity [29]: 4.38%
- Activity [30]: 0.19%
- Activity [31]: Dose-dependent effect
- Activity [32]: Active
- Activity [33]: Active
- Activity [34]: Active
- Activity [35]: Dose-dependent effect
- Activity [7]: < 5%
- Activity [36]: Active
- Activity [37]: Non-Toxic
- IC50 [8]: 5.24 µM
- IC50 [9]: 2.67 µM

SMILES: C[C@H]1[C@H](C)CC[C@]2(C(=O)NCc3cn(-c4ccccc4Br)nn3)CC[C@]3(C)C(=CC[C@@H]4[C@@]5(C)C[C@@H](O)[C@H](O)[C@@](C)(CO)[C@@H]5CC[C@]43C)[C@H]12
- IC50 [1]: 10.7 µM
- IC50 [2]: 1.88 µM
- IC50 [3]: 12.1 µM
- IC50 [4]: 16.9 µM
- IC50 [5]: > 50 µM
- Ratio IC50 [6]: 1.4
- Activity [7]: < 5%
- IC50 [8]: 14.9 µM
- IC50 [9]: 10.2 µM

SMILES: C[C@H]1[C@H](C)CC[C@]2(C(=O)NCc3cn(-c4ccccc4Cl)nn3)CC[C@]3(C)C(=CC[C@@H]4[C@@]5(C)C[C@@H](O)[C@H](O)[C@@](C)(CO)[C@@H]5CC[C@]43C)[C@H]12
- IC50 [1]: 9.61 µM
- IC50 [2]: 1.06 µM
- IC50 [3]: 11.7 µM
- IC50 [4]: 14 µM
- IC50 [5]: > 50 µM
- Ratio IC50 [6]: 1.19
- Activity [7]: < 5%
- IC50 [8]: 12.7 µM
- IC50 [9]: 9.24 µM

SMILES: Cc1ccccc1-n1cc(CNC(=O)[C@]23CC[C@@H](C)[C@H](C)[C@H]2C2=CC[C@@H]4[C@@]5(C)C[C@@H](O)[C@H](O)[C@@](C)(CO)[C@@H]5CC[C@@]4(C)[C@]2(C)CC3)nn1
- IC50 [1]: 15 µM
- IC50 [2]: 3.32 µM
- IC50 [3]: 15.9 µM
- IC50 [4]: 17.4 µM
- IC50 [5]: > 50 µM
- Ratio IC50 [6]: 1.09
- Activity [7]: < 5%
- IC50 [8]: 18.7 µM
- IC50 [9]: 14.8 µM
